Experimental data: US6566408B1, “Aqueous surfactant compositions of monoalkyl phosphate ester salts and amphoteric surfactants” (Rhodia, Inc., priority 2000, dated 2003)

System: human subjects (skin of the back)
Test: 14-Day Cumulative Irritation Assay (occlusive patch, comparative dermal irritation potential)
Format: in vivo
Source text: In the following study, the tested solutions were at a total surfactant actives content of 0.5% by weight. […] 14-Day Cumulative Irritation Assay of the Comparitive Dermal Irritation Potential of a Series of Test Articles The objective of this study was to determine the comparative dermal irritation potential of a series of nine (9) test articles on twenty-five (25) subjects using a 14-Day Cumulative Irritation Assay. Twenty-five (25) subjects, 1 male and 24 females, ranging in age from 18 to 55 years were empaneled for this test. […] Each day during the duration of the study, patches were removed and the sites were evaluated for irritation using the 6-point scoring system outlined below. […] This procedure was repeated at each visit for a period of fourteen (14) consecutive days, excluding Sundays (Saturday's patches were worn until Monday. Monday's irritation scores were recorded as Sunday's scores and Sunday was counted as an exposure day). Patch test sites were evaluated daily and scores were recorded on a Cumulative Irritation Patch Test recording form. Individual test article scores were calculated via summation of the results for each day. […] The following day's score was “carried back” and recorded for the missed visit day. […]

## CCCCCCCCCCCCOS(=O)(=O)[O-].[Na+] [Test Article #9, Sodium lauryl sulphate]
Sum of total cumulative score for 14 days, 22 subjects, highest possible 924, solutions at 0.5% total surfactant actives
  Total Cum. Irrit. Scores: 844.5
Total divided by 22 subjects, highest possible 42, 14 days, 0.5% total surfactant actives
  Mean Cum. Irrit. Scores: 38.4
